Assay results taken from publication PMC6424957 (Scientific Reports, 2019).
Values joined by “and” are separate entries in the source; they are usually repeats but may differ in a detail not shown here. Equal entries are not always repeated. Where two headings read alike, the source gives them in different places.

Tests used:
[1] = tested on: isolated rat liver mitochondria; assay: Mitochondrial membrane potential (safranine O); format: biochemical; conditions: 30 µM, 10-min incubation, mean ± SD, n ≥ 5; for ΔΨm, % depolarization, CI (g/m): energized with Complex-I substrates (glutamate, malate); for ΔΨm, % depolarization, CII (s/r): energized with succinate in the presence of rotenone
Excerpt: Mitochondria and the mitochondrial permeability transition (MPT) are key players in the cascades of events leading to cell death. Consequently, inhibition of the MPT is a promising target in neuroprotection. On the other hand, depolarization of mitochondria is widely used a predictor of toxicity[72] but depolarization connected with uncoupling of the respiratory chain or stimulation of electron flux can also be cytoprotective. Due to its redox-cycling capability, MB can restore the electron flux in the respiratory chain in the presence of inhibitors of complex-I[74]. […] Consequently, we measured the effect of our conjugates of MB and γ-carbolines on mitochondrial membrane potential under two conditions. (C1) Mitochondria were energized with NADH-dependent substrates of Complex-I (glutamate and malate). (CII) Mitochondria were energized with an FADH2-dependent substrate of Complex II (succinate) in the presence of rotenone, a Complex-I inhibitor. Conjugates (30 μM) were incubated with mitochondria and the effect on mitochondrial membrane potential was measured. For comparison, mitochondria were incubated with MB, MBH2, and Dimebon (30 μM each).
Safranine O (10 µM) was used as a membrane potential probe. Fluorescence intensity at 580 nm (excitation at 520 nm) was measured with Victor3 multi-well fluorescence plate reader (Perkin Elmer, Germany). Mitochondrial protein concentration was 0.2 mg/ml. The medium for measurements contained 75 mM sucrose, 225 mM mannitol, 10 mM K-HEPES, 0.02 mM EGTA, and 1 mM KH2PO4 (pH 7.4, 25 °C). After a 5-min incubation, 5 mM glutamate/malate or 5 mM succinate and 0.5 μM rotenone were added to produce the mitochondrial potential. Then the compounds (30 μM) or the same volume of vehicle (DMSO) were injected into the mitochondrial suspension. After 15–20 min, CaCl2 (12.5 μM) was added to each probe to induce the depolarization of mitochondria and after 5 min 0.5 µM carbonyl cyanide m-chlorophenyl hydrazone (CCCP) was added for maximum depolarization of mitochondria. The level of depolarization (ΔΨm) was calculated from the fluorescence value after a 10-min incubation with 30 µM of compounds (or vehicle) normalized between fluorescence measurements after substrate and CCCP additions.

[2] = molecular target: T1, Electrophorus electricus AChE (EeAChE) (Electrophorus electricus, UniProt O42275); assay: biochemical; format: biochemical
T1 construct: from human erythrocyte and E. electricus (EeAChE) (type VI-S); purchased Sigma-Aldrich (Germany) type VI-S; host or cells: Electrophorus electricus tissue
T1 sequence (O42275 24-633): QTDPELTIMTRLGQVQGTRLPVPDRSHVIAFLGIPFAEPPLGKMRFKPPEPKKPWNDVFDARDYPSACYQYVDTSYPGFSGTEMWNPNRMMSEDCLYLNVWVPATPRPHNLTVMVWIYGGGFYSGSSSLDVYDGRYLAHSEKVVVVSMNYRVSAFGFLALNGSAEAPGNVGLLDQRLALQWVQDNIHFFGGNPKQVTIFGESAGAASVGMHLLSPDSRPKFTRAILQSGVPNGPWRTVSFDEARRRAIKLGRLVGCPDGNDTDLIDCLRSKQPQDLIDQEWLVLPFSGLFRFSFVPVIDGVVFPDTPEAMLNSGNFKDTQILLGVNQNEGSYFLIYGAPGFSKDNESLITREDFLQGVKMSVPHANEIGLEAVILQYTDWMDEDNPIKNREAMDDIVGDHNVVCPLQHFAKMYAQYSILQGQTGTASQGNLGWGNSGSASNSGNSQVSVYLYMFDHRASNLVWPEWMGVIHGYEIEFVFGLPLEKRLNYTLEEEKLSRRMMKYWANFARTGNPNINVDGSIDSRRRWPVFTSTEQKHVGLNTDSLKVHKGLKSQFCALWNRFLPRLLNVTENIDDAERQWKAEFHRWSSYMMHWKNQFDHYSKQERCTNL
Procedure: (§1) Acetylcholinesterase (AChE, EC 3.1.1.7, from human erythrocyte and E. electricus (EeAChE) (type VI-S), butyrylcholinesterase (BChE, EC 3.1.1.8, from equine serum), carboxylesterase (CaE, EC 3.1.1.1, from porcine liver), acetylthiocholine iodide (ATCh), butylthiocholine iodide (BTCh), 5,5′-dithiobis-(2-nitrobenzoic acid) (DTNB), 4-nitrophenyl acetate (4-NPA), were purchased from Sigma-Aldrich (Germany).
(§2) AChE and BChE activities were measured by the Ellman method as described earlier. The assay solution consisted of 0.1 M K/Na phosphate buffer pH 7.5, 25 °C with the addition of 0.33 mM DTNB, 0.02 unit/mL of AChE or BChE, and 1 mM of substrate (ATCh or BTCh, respectively). The assays were carried out with a reagent blank containing all components except AChE or BChE to account for non-enzymatic hydrolysis of substrate. In addition, an enzyme blank was included that contained all components except substrate to account for non-substrate sulfhydryl groups. […] The assay solution consisted of 0.1 M K/Na phosphate buffer pH 8.0, 25 °C with the addition of 1 mM 4-nitrophenyl acetate and 0.02 unit/mL of CaE. Assays were carried out with a blank containing all components except CaE.
(§3) The test compounds were dissolved in DMSO; the incubation mixture contained 2% (v/v) of the solvent. […] The test compounds were added to the assay solution and preincubated at 25°C with the enzymes for 5 min followed by the addition of substrate. A parallel control was made for the assay solution with no inhibitor. […] Each experiment was performed three times. The results were expressed as the mean ± SEM. The reaction rates in the presence and absence of inhibitor were compared, and the percent of residual enzyme activity due to the presence of test compounds was calculated.

[3] = molecular target: T2, equine serum butyrylcholinesterase (BChE) (Equus caballus, UniProt P81908); assay: biochemical; format: biochemical; conditions: mean ± SEM, n ≥ 3
T2 construct: butyrylcholinesterase (BChE, EC 3.1.1.8, from equine serum); purchased Sigma-Aldrich (Germany); host or cells: equine serum
T2 sequence (P81908 whole entry): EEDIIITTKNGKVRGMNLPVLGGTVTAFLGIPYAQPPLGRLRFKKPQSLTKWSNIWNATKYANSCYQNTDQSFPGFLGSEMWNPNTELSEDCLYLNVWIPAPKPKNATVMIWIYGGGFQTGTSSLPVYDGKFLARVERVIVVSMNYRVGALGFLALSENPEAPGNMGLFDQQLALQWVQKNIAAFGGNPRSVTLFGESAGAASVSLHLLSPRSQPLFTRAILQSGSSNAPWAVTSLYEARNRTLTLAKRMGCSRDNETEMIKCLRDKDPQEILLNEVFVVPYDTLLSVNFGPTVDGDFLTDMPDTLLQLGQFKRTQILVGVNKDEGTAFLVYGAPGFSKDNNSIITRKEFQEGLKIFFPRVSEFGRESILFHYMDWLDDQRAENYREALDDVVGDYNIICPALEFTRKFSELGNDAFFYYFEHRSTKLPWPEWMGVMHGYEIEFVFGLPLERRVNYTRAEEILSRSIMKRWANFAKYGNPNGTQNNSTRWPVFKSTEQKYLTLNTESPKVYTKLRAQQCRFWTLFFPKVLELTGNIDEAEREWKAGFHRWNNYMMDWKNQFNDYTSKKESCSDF
Procedure: as §1, §2, §3

[4] = molecular target: T3, human erythrocyte acetylcholinesterase (AChE) (Homo sapiens, UniProt P22303); assay: biochemical; format: biochemical; conditions: mean ± SEM, n ≥ 3
T3 construct: Acetylcholinesterase (AChE, EC 3.1.1.7, from human erythrocyte); purchased Sigma-Aldrich (Germany); host or cells: human erythrocytes
T3 sequence (P22303 32-617 isoform P22303-2 limits assumed): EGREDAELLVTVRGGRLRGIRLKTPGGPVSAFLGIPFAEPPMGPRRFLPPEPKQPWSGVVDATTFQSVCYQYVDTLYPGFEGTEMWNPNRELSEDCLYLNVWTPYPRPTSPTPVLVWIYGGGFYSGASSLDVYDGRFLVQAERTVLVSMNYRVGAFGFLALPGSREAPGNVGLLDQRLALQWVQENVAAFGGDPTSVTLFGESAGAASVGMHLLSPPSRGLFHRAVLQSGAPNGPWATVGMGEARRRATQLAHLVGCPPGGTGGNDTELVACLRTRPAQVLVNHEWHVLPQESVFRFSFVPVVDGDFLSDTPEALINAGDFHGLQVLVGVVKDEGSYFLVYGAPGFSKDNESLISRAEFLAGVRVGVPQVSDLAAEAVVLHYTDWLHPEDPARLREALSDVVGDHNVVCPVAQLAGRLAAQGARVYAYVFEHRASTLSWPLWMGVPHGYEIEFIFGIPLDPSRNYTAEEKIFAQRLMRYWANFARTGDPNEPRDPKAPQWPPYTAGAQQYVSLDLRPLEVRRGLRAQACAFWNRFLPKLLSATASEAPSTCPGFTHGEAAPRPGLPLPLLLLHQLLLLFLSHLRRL
Procedure: as §1, §2, §3

[5] = molecular target: T4, peripheral anionic site (PAS) of EeAChE (Electrophorus electricus, UniProt O42275); format: binding; conditions: EeAChE 7 μM, propidium iodide 8 μM; for % Displacement of propidium iodide, 3 µM: compound 3 µM; for % Displacement of propidium iodide, 20 µM: compound 20 µM
T4 construct: from human erythrocyte and E. electricus (EeAChE) (type VI-S); purchased Sigma-Aldrich (Germany) type VI-S; host or cells: Electrophorus electricus tissue
T4 sequence (O42275 24-633): as the sequence (O42275 24-633) above
Excerpt: The fluorescent assay used to evaluate competitive propidium iodide displacement from the PAS of AChE is commonly used as primary screening method of AChE pro-aggregation activity inhibitors. Propidium iodide is a selective ligand for the PAS of AChE responsible for Aβ binding.
EeAChE was used owing to its high degree of purification, high activity, and lower cost than human AChE. […] The fluorescence intensity of propidium iodide bound with AChE increases several times.
To determine the degree of displacement (% displacement) of propidium iodide from the PAS of AChE, EeAChE (final concentration 7 μM) was incubated with the test compound at a concentration of 3 and 20 μM in 1 mM Tris-HCl buffer pH 8.0, 25 °C for 15 min. Then, propidium iodide solution (final concentration 8 μM) was added, the samples were incubated for 15 min and the fluorescence spectrum (530 nm (excitation) and 600 nm (emission)) was taken. Donepezil and tacrine were used as reference compounds. The blank contained propidium iodide of the same concentration in 1 mM Tris-HCl buffer pH 8.0. The measurements were carried out in triplicate on a microplate reader FLUOStar Optima (BMG Labtech Germany).
The degree of displacement (% displacement) of propidium iodide from the peripheral anionic site of AChE was calculated by the following formula: %Displacement=100−(IFAChE+Propidium+inhibitor/IFAChE+Propidium)[…], where IFAChE + Propidium is the fluorescence intensity of the propidium associated with AChE in the absence of the test compound (taken as 100%), and IFAChE + Propidium + inhibitor is the fluorescence intensity of the propidium associated with AChE in the presence of the test compound.

[6] = tested on: isolated rat liver mitochondria; assay: Restoration of mitochondrial membrane potential after rotenone-induced depolarization; format: biochemical; conditions: 3 μM compound
Excerpt: Therefore, we examined the ability of MB, MBH2, and compound 3 to restore membrane potential after depolarization with rotenone. […] It is important to note that successive additions of calcium and the uncoupler carbonyl cyanide m-chlorophenyl hydrazone (CCCP) each caused mitochondrial depolarization (Fig. 6). […]

[7] = mean ± SEM, n ≥ 3, read-out: EeAChE IC50

| SMILES | ΔΨm, % depolarization, CI (g/m) [1] [%] | ΔΨm, % depolarization, CII (s/r) [1] [%] | IC50 [2, 7] [nM] | IC50 [3] [nM] | IC50 [4] [nM] | % Displacement of propidium iodide, 3 µM [5] | % Displacement of propidium iodide, 20 µM [5] | recovery of ΔΨm after rotenone-induced depolarization [6] | IC50 [2] [nM] |
| --- | --- | --- | --- | --- | --- | --- | --- | --- | --- |
| CN1CCc2c(c3ccccc3n2CCC(=O)N2c3ccc(N(C)C)cc3Sc3cc(N(C)C)ccc32)C1.Cl.Cl.Cl [Compound 1] | 20 ± 1 | 64 ± 2 | 830 ± 30 | 5940 ± 550 | 3170 ± 130 | – | – | – | – |
| CCN1CCc2c(c3ccccc3n2CCC(=O)N2c3ccc(N(C)C)cc3Sc3cc(N(C)C)ccc32)C1.Cl.Cl.Cl [Compound 2] | 7 ± 1 | 48 ± 1 | 670 ± 40 | 2530 ± 220 | 2950 ± 70 | 12.9 ± 1.1% | 37.1 ± 2.0% | – | – |
| Cc1ccc2c(c1)c1c(n2CCC(=O)N2c3ccc(N(C)C)cc3Sc3cc(N(C)C)ccc32)CCN(C)C1 [Compound 3] | 29 ± 11 | 67 ± 2 | 1470 ± 80 | 1820 ± 140 | 1730 ± 110 | 8.1 ± 0.7% | 35.6 ± 1.5% | recovered | – |
| CCN1CCc2c(c3cc(C)ccc3n2CCC(=O)N2c3ccc(N(C)C)cc3Sc3cc(N(C)C)ccc32)C1.Cl.Cl.Cl [Compound 4] | 9 ± 1 | 43 ± 3 | 650 ± 50 | 17900 ± 1400 | 4030 ± 360 | 11.8 ± 0.6% | 37.6 ± 1.8% | – | – |
| CCCN1CCc2c(c3cc(C)ccc3n2CCC(=O)N2c3ccc(N(C)C)cc3Sc3cc(N(C)C)ccc32)C1.Cl.Cl.Cl [Compound 5] | 17 ± 2 | 69 ± 2 | 800 ± 70 | 8420 ± 830 | 3950 ± 210 | 14.2 ± 0.9% | 35.1 ± 0.9% | – | – |
| Cc1ccc2c(c1)c1c(n2CCC(=O)N2c3ccc(N(C)C)cc3Sc3cc(N(C)C)ccc32)CCN(C(C)C)C1.Cl.Cl.Cl [Compound 6] | 8 ± 2 | 44 ± 5 | 1070 ± 80 | 970 ± 50 | 7370 ± 420 | 7.7 ± 0.5% | 30.0 ± 0.9% | – | – |
| CN1CCc2c(c3cc(F)ccc3n2CCC(=O)N2c3ccc(N(C)C)cc3Sc3cc(N(C)C)ccc32)C1 [Compound 7] | 13 ± 3 | 67 ± 1 | 2090 ± 190 | 10500 ± 900 | 6860 ± 320 | 6.7 ± 0.5% | 29.8 ± 2.1% | – | – |
| CN(C)c1ccc2nc3ccc(=[N+](C)C)cc-3sc2c1 [MB, methylene blue, reference compound] | 14 ± 7 | 40 ± 9 | – | 11100 ± 100 | – | 20% and 20.9 ± 1.9% | 40% and 40.8 ± 3.7% | recovered | 210 ± 20 |
| CN(C)c1ccc2c(c1)Sc1cc(N(C)C)ccc1N2 [MBH2, leucomethylene blue, reference compound] | – | 18 ± 1 | – | 10700 ± 200 | 1760 ± 90 | 17.7 ± 1.8% | 36.9 ± 3.3% | recovered | 280 ± 20 |
